Data published in patent publication US9968605B2, “2-(2-methylamino-pyrimidin-4-yl)-1h-indole-5-carboxylic acid [(S)-1-carbamoyl-2-(phenyl-pyrimidin-2-yl-amino)-ethyl]-amide for use in the treatment of pain associated to osteoarthritis” (SANOFI, priority 2014, dated 2018).
Entries after “also recorded” stand apart in the source; their conditions may differ.

Tests used:
patients with knee OA [1] = assay: Clinical trial: WOMAC index scores after a single intra-articular dose in patients with knee OA; format: in vivo, human; details: for Total WOMAC score, absolute change from baseline, Estimate / WOMAC subscore for Pain, absolute change from baseline, Estimate / WOMAC subscore for Physical function, absolute change from baseline, Estimate / WOMAC subscore for Stiffness, absolute change from baseline, Estimate: 60 mg single intra-articular dose; for Total WOMAC score, Compound A 60 mg vs Placebo, Estimate / WOMAC subscore for Pain, Compound A 60 mg vs Placebo, Estimate / WOMAC subscore for Physical function, Compound A 60 mg vs Placebo, Estimate / WOMAC subscore for Stiffness, Compound A 60 mg vs Placebo, Estimate: difference in change from baseline; for WOMAC subscore for Stiffness, Effect size (90% CI): vs placebo
Method: (§1) The objective of this study was to assess in patients with knee OA, the efficacy, safety and tolerability of a single intra-articular dose of Compound A.
(§2) This was a two-center, double-blind, randomized, placebo controlled, single dose study. Following a review of the safety data up to Day 28 from Part 1 of this study, the second part of the study assessed the efficacy of a single dose of Compound A, selected from the maximum administered/tolerated dose from Part 1 (60 mg), in relieving symptoms of patients with knee OA.
(§3) Screening was performed within 28 days of dosing. Following the single dose of study medication administered via intra-articular injection on Day 1, each patient remained at the Study Unit for 4 hours after dosing and, provided there was no difficulty with tolerability, patients were discharged and returned periodically for outpatient visits. Each patient was followed up to Day 168 (end-of-study visit); therefore the study period was 28 weeks.
Compound A was supplied as a lyophilized cake (to be reconstituted in water for injection for intra-articular administration) in vials containing 20, 40 and 80 mg total of active Compound A. The placebo was commercially available 0.9% saline solution for the injection.
The following sub-scales from the WOMAC Index were used to assess the activity of the drug upon pain, stiffness and physical function. Each item will be rated on the basis of the patient's symptoms over the last 48 h, by means of a 5 point Likert Scale: none, mild, moderate, severe, or very severe.
The primary endpoint was the WOMAC Pain sub-scale at Day 56 for evidence of efficacy (change from baseline).
Inclusion criteria are: • Diagnosis of primary knee osteoarthritis, based upon the following: • X-ray or MRI evidence within the last 6 months for joint space narrowing and osteophyte formation—patients will be Kellgren and Lawrence classification II/III, • Total WOMAC score 24-72 and • Fulfilling the American College of Rheumatology Clinical and Radiographic criteria for OA.
Analysis of Efficacy Variables:
Using the primary analysis efficacy population and for WOMAC sub-score for pain on Day 56, treatment mean differences (Compound A minus placebo) in change from baseline and their one-sided 95% upper limit of the confidence interval were computed using linear fixed effects models with fixed terms for treatment group and sex, and with an unstructured R variance/covariance matrix on treatment group for patient within sex blocks, using SAS Proc Mixed®. In case of convergence problems, other variance-covariance structures were explored.
The signs and symptoms of OA were measured with a standard instrument as WOMAC index.
WOMAC index consists of 24 questions in 3 dimensions subscales: • Pain subcale (5 items) • Stiffness subscale (2 items) • Physical function subscale (17 items)
Each item was rated by means of a 5 point Likert scale: none (=0), mild (=1), moderate (=2), severe (=3) and very severe (=4) A total WOMAC score and a WOMAC subscore for each dimension was calculated.
A supportive analysis to the primary analysis was conducted over patients from the efficacy population and with at least one post-dose WOMAC sub-score measurement, using a last observations carried forward (LOCF) approach up to Day 56.
The total WOMAC score and WOMAC sub-score for stiffness and physical function were analysed in the same way as for the primary analysis of WOMAC sub-score for pain.
The treatment mean difference between groups with their one-sided 95% upper limit of the CI was estimated for all other days for all scores. Time profile plots of treatment mean differences with their one-sided 95% upper limit of the CI were provided.
For each WOMAC score (total and sub-scores), the effect size based on the estimated (within the fixed effects model frameworks) mean treatment difference in change from baseline between groups (active versus placebo) were provided at each day with their corresponding 95% CI.

patients with knee OA [2] = assay: Clinical trial: safety and tolerability of a single intra-articular dose in patients with knee OA; format: in vivo
Method: as §1, §2, §3
Safety was assessed by adverse event (AE) monitoring, standard clinical laboratory evaluations, physical examination, vital sign and electrocardiogram (ECG) assessments, local tolerability at site of injection and assessments of the knee joint (effusion/worsening of effusion).
The safety analysis was based on the review of descriptive statistics and individual data for AEs, clinical laboratory, vital signs, and ECG parameters. Adverse events were coded according to the Medical Dictionary for Regulatory Activities (version 15.1) and the numbers of subjects with treatment-emergent AEs (TEAEs) were tabulated (counts and percents). For clinical laboratory, vital signs, and ECG data, the analyses of abnormalities were based on the definitions of potentially clinically significant abnormalities (PCSAs; definitions according to version 2.0 dated 14 Sep. 2009). Local tolerance/tolerability at the site of injection was summarized by descriptive statistics.

patients with knee OA [3] = assay: Clinical trial: WOMAC index scores after a single intra-articular dose in patients with knee OA; format: in vivo, human; details: Day 56; vs placebo; efficacy population (all patients); negative = positive effect of drug
[4] = Day 56, efficacy population (all patients)
[5] = Day 56, patients with effusion at baseline

For CNc1nccc(-c2cc3cc(C(=O)N[C@@H](CN(c4ccccc4)c4ncccn4)C(N)=O)ccc3[nH]2)n1 [Compound A, 2-(2-methylamino-pyrimidin-4-yl)-1H-indole-5-carboxylic acid [(S)-1-carbamoyl-2-(phenyl-pyrimidin-2-yl-amino)-ethyl]-amide], the “Total WOMAC score, absolute change from baseline, Estimate” value (patients with knee OA [1]; [4]) was −10.5566, the “WOMAC subscore for Pain, absolute change from baseline, Estimate” value (patients with knee OA [1]; [4]) was −1.8229 and the “WOMAC subscore for Physical function, absolute change from baseline, Estimate” value (patients with knee OA [1]; [4]) was −7.7966. The “WOMAC subscore for Stiffness, absolute change from baseline, Estimate” value (patients with knee OA [1]; [4]) was −0.9406, the “Total WOMAC score, absolute change from baseline, Estimate” value (patients with knee OA [1]; [5]) was −17.0761 and the “WOMAC subscore for Pain, absolute change from baseline, Estimate” value (patients with knee OA [1]; [5]) was −2.9701. For the same molecule, the “WOMAC subscore for Physical function, absolute change from baseline, Estimate” value (patients with knee OA [1]; [5]) was −12.9658, the “WOMAC subscore for Stiffness, absolute change from baseline, Estimate” value (patients with knee OA [1]; [5]) was −1.1672 and the “effect sizes for WOMAC subscores” value (patients with knee OA [1]; Day 56, all patients, negative indicates a positive effect of drug against placebo) was 0.12 to −0.04. The “Total WOMAC score, Compound A 60 mg vs Placebo, Estimate” value (patients with knee OA [1]; [4]) was 1.0495, the “WOMAC subscore for Pain, Compound A 60 mg vs Placebo, Estimate” value (patients with knee OA [1]; [4]) was 0.4554 and the “WOMAC subscore for Physical function, Compound A 60 mg vs Placebo, Estimate” value (patients with knee OA [1]; [4]) was 0.6854. The “WOMAC subscore for Stiffness, Compound A 60 mg vs Placebo, Estimate” value (patients with knee OA [1]; [4]) was −0.0573, the “Total WOMAC score, Compound A 60 mg vs Placebo, Estimate” value (patients with knee OA [1]; [5]) was −9.3562 and the “WOMAC subscore for Pain, Compound A 60 mg vs Placebo, Estimate” value (patients with knee OA [1]; [5]) was −1.7213. For the same molecule, the “WOMAC subscore for Physical function, Compound A 60 mg vs Placebo, Estimate” value (patients with knee OA [1]; [5]) was −6.8188, the “WOMAC subscore for Stiffness, Compound A 60 mg vs Placebo, Estimate” value (patients with knee OA [1]; [5]) was −0.9028 and the “effect on WOMAC Pain subscores, other WOMAC subscores or Total score” value (patients with knee OA [1]; Day 56, efficacy population (all patients), 60 mg) was “neither a clinically significant nor a statistically significant effect”. For the same molecule, the “WOMAC subscore for Stiffness, Effect size (90% CI)” value (patients with knee OA [1]; Day 56, efficacy population (all patients), negative = positive effect of drug) was −0.04, the “WOMAC subscore for Stiffness, Effect size (90% CI)” value (patients with knee OA [1]; [5]) was −0.71 and the “efficacy on pain in patients with knee osteoarthritis and effusion (WOMAC assessment)” value (patients with knee OA [1]; subgroup of patients with effusion at baseline) was “significant efficacy; also recorded: significant effect”. For the same molecule, the “reported TEAEs and their severity, including local reactions at the injection site, vs placebo (0.9% saline)” value (patients with knee OA [2]; 60 mg single intra-articular dose) was “no difference between Compound A and placebo”, the “tolerability of single doses” value (patients with knee OA [2]; 60 mg single intra-articular dose, patients with knee OA) was “well tolerated” and the “most frequent TEAE” value (patients with knee OA [2]; after administration of Compound A or placebo, followed by injection site reactions) was “Arthralgia”. The “Total WOMAC score, Effect size (90% CI)” value (patients with knee OA [3]) was 0.06, the “WOMAC subscore for Pain, Effect size (90% CI)” value (patients with knee OA [3]) was 0.12 and the “WOMAC subscore for Physical function, Effect size (90% CI)” value (patients with knee OA [3]) was 0.06.
